Reference: paper PMC8958505, “Discovery of Potential Neuroprotective Agents against Paclitaxel-Induced Peripheral Neuropathy” (Journal of Medicinal Chemistry, 2022)

Experiments:
[1] = test system: primary cortical neurons; experiment: Neurite outgrowth assay of primary cortical neurons (image-based HCS) against paclitaxel-induced neurotoxicity; assay type: cell-based, mouse; conditions: Mus musculus, Primary cortical neuron; for activity at 0.01 µM: read-out: C: Neurite outgrowth (% of control) of test compound (10 nM) + paclitaxel (1 μM); for activity at 1 µM: read-out: D: Neurite outgrowth (% of control) of test compound (1000 nM) + paclitaxel (1 μM)
Excerpt: (§1) Herein, we wish to report that an in vitro neurite outgrowth assay of cortical neurons integrated with an image-based high-content screening (HCS) platform is used to evaluate a commercially available library of 78 minoxidil-related derivatives,[22] leading to the identification of a series of analogues able to prevent or alleviate paclitaxel-induced neurotoxicity. The project began with screening compounds with the primary culture of cortical neurons from neonatal mice. More specifically, cerebral cortex neurons cultured from P0 C57BL/6J mouse pups were incubated with a test compound (10 and 1000 nM) prior to paclitaxel (1 μM) treatment. Subsequently, both neurite outgrowth and synaptogenesis were measured to evaluate the test compounds’ neuroprotective capacity. […] This unique feature is preserved for the core-structure screening of our in-house library in the following subject. Moreover, the substituent at the C4 position appears flexible in terms of structural diversity. Collectively, CSV0A024807, the only one displaying the best neuroprotective potency on both neurite outgrowth and synaptogenesis assays, was thus elected as a potential hit compound for further development.
(§2) Primary cortical or DRG cells were fixed with 4% paraformaldehyde for 15 min following compound and paclitaxel treatment. After washing with PBS, the fixed cells were permeabilized with PBS containing 0.05% Triton X-100 for 20 min and then blocked with commercial blocking buffer (#GTX30963; GeneTex, USA) at room temperature for 1 h. Subsequently, the cortical cells were stained for the extending processes and synaptic puncta by using anti-MAP2 (#MBS502140, 1:500; Mybiosource, USA) and anti-synaptophysin (#ab32127, 1:500; Abcam, UK) overnight. DRG cells were stained for the neurite and neuron nucleus by using anti-β III tubulin (#D71G9, 1:600; Cell Signaling, USA) and anti-NeuN monoclonal antibody (#MAB377, 1:400; Millipore, USA) overnight. On the second day, the samples were washed for 30 min with wash buffer and incubated with secondary antibodies (Alexa-488, 647 1:600; Thermo Fisher, USA) and 4 μg/mL Hoechst 33258 (#94403-1ML, 1:100; Merck, USA) at room temperature for 1 h. In the initial experiments of screening the potential neuroprotective compound for CIPN, ImageXpress^Micro (IXM) high-content imaging system (Molecular Devices, USA) driven by MetaXpress software was used. Images of treated cells were automatically acquired by using a 10× objective. Twenty-one images per well were taken in each of three channels (DAPI, FITC, and Cy5) to create a whole view of the entire neural network. The integrity of the neural network was evaluated using TIF images by importing them into MetaXpress software for analysis using the module for multiparameter, such as Neurite Outgrowth, Cell Scoring, and Transfluor. Furthermore, the score of synaptogenesis was analyzed in AcuityXpress software (Molecular Devices, USA).

[2] = test system: primary cortical neurons; experiment: Synaptogenesis assay of primary cortical neurons (image-based HCS) against paclitaxel-induced neurotoxicity; assay type: cell-based, mouse; conditions: Mus musculus, Primary cortical neuron; for activity at 0.01 µM: read-out: A: Synaptogenesis (% of control) of test compound (10 nM) + paclitaxel (1 μM); for activity at 1 µM: read-out: B: Synaptogenesis (% of control) of test compound (1000 nM) + paclitaxel (1 μM)
Excerpt: as §1, §2

[3] = test compound 10 nM + paclitaxel 1 μM, mean ± SE
[4] = test compound 1000 nM + paclitaxel 1 μM, mean ± SE

Q: `Clc1ccc(/C=N/Nc2cc(N3CCCCCC3)nc(N3CCCCCC3)n2)cc1` [CSV0A027457] was tested. Which activity at 0.01 µM [1, 3] did it give?
A: 62 ± 4%

Q: What about the activity at 1 µM [1, 4] of the same compound?
A: 51 ± 4%

Q: And the activity at 0.01 µM [2, 3]?
A: 51 ± 4%

Q: And the activity at 1 µM [2, 4]?
A: 39 ± 4%

Q: What does the source list for `CN(C)c1ccc(/C=N/Nc2cc(N3CCCC3)nc(N3CCCC3)n2)cc1` [CSV0A027460]?
A: activity at 0.01 µM [1, 3]: 77 ± 1%; activity at 1 µM [1, 4]: 63 ± 3%; activity at 0.01 µM [2, 3]: 47 ± 1%; activity at 1 µM [2, 4]: 33 ± 3%

Q: `CCOc1ccc(Nc2nc(/N=C/c3c(OC)c(C(=O)Nc4ccccc4C)cc4ccccc34)c([N+](=O)[O-])c(NCc3ccccc3)n2)cc1` [CSVOD047961] was tested. Which activity at 0.01 µM [1, 3] did it give?
A: 90 ± 2%

Q: And the activity at 1 µM [1, 4]?
A: 95 ± 2%

Q: And the activity at 0.01 µM [2, 3]?
A: 30 ± 3%

Q: What about the activity at 1 µM [2, 4] of the same compound?
A: 36 ± 1%

Q: How did the activity at 0.01 µM [1, 3] turn out when `CCN(CC)c1cc(N/N=C/c2ccccc2OC)nc(N(CC)CC)n1` [CSV0A007655] was run?
A: 45 ± 7%

Q: What about the activity at 1 µM [1, 4] of the same compound?
A: 51 ± 3%

Q: What about the activity at 0.01 µM [2, 3] of the same compound?
A: 39 ± 4%

Q: And the activity at 1 µM [2, 4]?
A: 41 ± 2%

Q: With `C(=N\Nc1cc(N2CCCCCC2)nc(N2CCCCCC2)n1)/c1ccncc1` [CSV0A061667] as the compound, how does the activity at 0.01 µM [1, 3] read?
A: 82 ± 6%

Q: And the activity at 1 µM [1, 4]?
A: 82 ± 6%

Q: What about the activity at 0.01 µM [2, 3] of the same compound?
A: 40 ± 6%

Q: And the activity at 1 µM [2, 4]?
A: 41 ± 7%

Q: Which results are given for `Cc1ccccc1C(=O)NNc1cc(N2CCOCC2)nc(N2CCOCC2)n1` [CSV0A062712]?
A: activity at 0.01 µM [1, 3]: 67 ± 10%; activity at 1 µM [1, 4]: 63 ± 6%; activity at 0.01 µM [2, 3]: 52 ± 7%; activity at 1 µM [2, 4]: 51 ± 2%

Q: For `CN(C)c1cc(N/N=C/c2cccc([N+](=O)[O-])c2)nc(N(C)C)n1` [CSV0A027458], which activity at 0.01 µM [1, 3] is on record?
A: 71 ± 3%

Q: What about the activity at 1 µM [1, 4] of the same compound?
A: 65 ± 3%

Q: And the activity at 0.01 µM [2, 3]?
A: 73 ± 3%

Q: What about the activity at 1 µM [2, 4] of the same compound?
A: 73 ± 3%

Q: For `Clc1ccc(/C=N/Nc2cc(N3CCCC3)nc(N3CCCC3)n2)cc1` [CSV0A024814], which activity at 0.01 µM [1, 3] is on record?
A: 81 ± 0.005%

Q: And the activity at 1 µM [1, 4]?
A: 67 ± 2%

Q: And the activity at 0.01 µM [2, 3]?
A: 46 ± 1%

Q: And the activity at 1 µM [2, 4]?
A: 31 ± 1%

Q: How did the activity at 0.01 µM [1] turn out when `CN(C)c1cc(N/N=C/c2ccccc2)nc(N(C)C)n1` [CSV0A047582] was run?
A: 69 ± 3%

Q: And the activity at 1 µM [1]?
A: 67 ± 3%

Q: What about the activity at 0.01 µM [2] of the same compound?
A: 73 ± 3%

Q: What about the activity at 1 µM [2] of the same compound?
A: 77 ± 9%

Q: What does the source list for `CCCN(CCC)c1cc(N/N=C/c2cc(Br)ccc2O)nc(N(CCC)CCC)n1` [CSV0A020330]?
A: activity at 0.01 µM [1, 3]: 27 ± 2%; activity at 1 µM [1, 4]: 45 ± 3%; activity at 0.01 µM [2, 3]: 22 ± 3%; activity at 1 µM [2, 4]: 45 ± 7%

Q: What does the source list for `Oc1ccc(Cl)cc1/C=N/Nc1cc(N2CCCC2)nc(N2CCCC2)n1` [CSV0A041619]?
A: activity at 0.01 µM [1]: 62 ± 2%; activity at 1 µM [1]: 61 ± 2%; activity at 0.01 µM [2]: 54 ± 0.03%; activity at 1 µM [2]: 62 ± 2%

Q: How did the activity at 0.01 µM [1, 3] turn out when `CC(C)(C)c1ccc(C(=O)NNc2cc(N3CCOCC3)nc(N3CCOCC3)n2)cc1` [CSV0B026196] was run?
A: 83 ± 5%

Q: What about the activity at 1 µM [1, 4] of the same compound?
A: 65 ± 4%

Q: What about the activity at 0.01 µM [2, 3] of the same compound?
A: 36 ± 2%

Q: And the activity at 1 µM [2, 4]?
A: 32 ± 1%

Q: Which activity at 0.01 µM [1, 3] does the source give for `O=[N+]([O-])c1ccc(/C=N/Nc2cc(N3CCCCCC3)nc(N3CCCCCC3)n2)cc1` [CSV0A012753] here?
A: 77 ± 7%

Q: And the activity at 1 µM [1, 4]?
A: 75 ± 7%

Q: What about the activity at 0.01 µM [2, 3] of the same compound?
A: 60 ± 1%

Q: And the activity at 1 µM [2, 4]?
A: 61 ± 4%

Q: How did the activity at 0.01 µM [1, 3] turn out when `CN(C)c1cc(N/N=C/c2ccc(Cl)cc2)nc(N(C)C)n1` [CSV0A027459] was run?
A: 76 ± 7%

Q: And the activity at 1 µM [1, 4]?
A: 79 ± 11%

Q: And the activity at 0.01 µM [2, 3]?
A: 35 ± 1%

Q: What about the activity at 1 µM [2, 4] of the same compound?
A: 37 ± 2%

Q: Which activity at 0.01 µM [1, 3] does the source give for `Oc1ccc(Br)cc1/C=N/Nc1cc(N2CCOCC2)nc(N2CCOCC2)n1` [CSV0A013030] here?
A: 76 ± 5%

Q: And the activity at 1 µM [1, 4]?
A: 89 ± 11%

Q: And the activity at 0.01 µM [2, 3]?
A: 26 ± 2%

Q: What about the activity at 1 µM [2, 4] of the same compound?
A: 26 ± 3%

Q: With `COc1cc(/C=N/Nc2cc(N3CCCCC3)nc(N3CCCCC3)n2)ccc1O` [CSV0B006088] as the compound, how does the activity at 0.01 µM [1, 3] read?
A: 59 ± 5%

Q: What about the activity at 1 µM [1, 4] of the same compound?
A: 66 ± 7%

Q: What about the activity at 0.01 µM [2, 3] of the same compound?
A: 45 ± 6%

Q: And the activity at 1 µM [2, 4]?
A: 52 ± 10%

Q: Which results are given for `C(=N\Nc1cc(N2CCOCC2)nc(N2CCOCC2)n1)/c1ccncc1` [CSV0A024809]?
A: activity at 0.01 µM [1, 3]: 77 ± 2%; activity at 1 µM [1, 4]: 82 ± 3%; activity at 0.01 µM [2, 3]: 38 ± 3%; activity at 1 µM [2, 4]: 27 ± 0.5%

Q: `Oc1ccccc1/C=N/Nc1cc(N2CCCCC2)nc(N2CCCCC2)n1` [CSV0B023377] was tested. Which activity at 0.01 µM [1, 3] did it give?
A: 57 ± 2%

Q: What about the activity at 1 µM [1, 4] of the same compound?
A: 57 ± 4%

Q: What about the activity at 0.01 µM [2, 3] of the same compound?
A: 42 ± 1%

Q: And the activity at 1 µM [2, 4]?
A: 42 ± 3%

Q: With `O=[N+]([O-])c1cc(/C=N/Nc2cc(N3CCCCCC3)nc(N3CCCCCC3)n2)cc2c1OCO2` [CSV0A024811] as the compound, how does the activity at 0.01 µM [1, 3] read?
A: 69 ± 7%

Q: And the activity at 1 µM [1, 4]?
A: 60 ± 3%

Q: What about the activity at 0.01 µM [2, 3] of the same compound?
A: 52 ± 1%

Q: What about the activity at 1 µM [2, 4] of the same compound?
A: 46 ± 4%
